Results on 7 molecules are retold here after article PMC7912516, “New Antimicrobials Based on the Adarotene Scaffold with Activity against Multi-Drug Resistant Staphylococcus aureus and Vancomycin-Resistant Enterococcus” (Antibiotics, 2021).

Where “and” joins values, the source holds several entries; their conditions need not be identical. Equal values may be shown once. Read-outs that look alike come from different tables or passages of the source.

Assay [1] has as its system S. aureus strain 1 (MDR clinical isolate, MRSA, mecA positive). Put plainly: MIC/MBC by broth micro-dilution (CLSI). Format: cell-based, Staphylococcus aureus. To be noted: for MIC / MBC: S. aureus Strain 1; for MBC: in square brackets; for bactericidal or bacteriostatic activity (killing rate = MBC/MIC): S. aureus and E. faecalis, bactericides killing rate = 1–4, bacteriostatic > 4. As for the experimental part: (§1) The compounds were initially tested with a methicillin-resistant S. aureus and an E. faecalis clinical isolates (details in the experimental section), two MDR strains according to definition by Magiorakos et al.. The activity of studied compounds was assessed by broth micro-dilution method. Minimal Inhibitory Concentration (MIC), and Minimal Bactericidal Concentration (MBC) were determined and possible bacteriostatic or bactericidal activity was also investigated.
(§2) MICs and MBCs were determined according to CLSI (Clinical and Laboratory Standards Institute) guidelines, in triplicate. Results are shown as modal values of the three replicates. According to MIC and MBC data, the killing rate was calculated as the ratio between MBC and MIC on which basis it is possible to define the compounds tested as bactericides (killing rate = 1–4), or bacteriostatic (killing rate > 4).
(§3) Preparation of the solution containing molecules: for each molecule to be tested, solutions were made as DMSO stock, with a concentration of 2.560 mg/mL. Scalar dilutions were than prepared directly on plates by using Mueller Hinton Broth (MHB) as a growth medium (range 0.5–256 µg/mL).
(§4) Bacterial suspension preparation: cryostrains preserved at −80 °C were recovered by incubation in growth medium (Brain Heart Infusion Broth, BHI) for 24–48 h at 35 ± 2 °C followed by passages in agar growth medium (Columbia Blood Agar). Colonies with less than 30 h were suspended in MHB with the purpose to prepare a bacterial suspension with a turbidity of 0.5 MF, containing approximately 1.5 × 10^8 cfu/mL. This suspension was than diluted in MHB until reaching a final concentration of 5 × 10^4 CFU/well. Simultaneously, check in broth-microdilution only with solvent (in order to exclude that the effect of growth inhibition might be due to the drug solution solvent), positive growth control in absence of DMSO and drug, and negative purity control only with injection broth were performed.
S. aureus strain 1 (collection, MDR): mecA positive; MRSA, β-lactamase positive, resistant to ciprofloxacin, gentamicin and erythromycin.

Assay [2] relates to E. faecalis strain 1 (MDR clinical isolate). Put plainly: MIC/MBC by broth micro-dilution (CLSI). Format: cell-based, Enterococcus faecalis. Conditions: for MBC: in square brackets. As to the method: as §1, §2, §3, §4
E. faecalis strain 1 (collection, MDR) vanA/B negative; aminoglycosides high-level resistant to aminoglycosides (gentamicin and streptomycin) and ampicillin.
On the technique in general: Broth dilution looks for growth in wells or tubes with falling amounts of substance.

Assay [3] relates to tumor cell line H-460 NCI. Nature of the assay: Cytotoxic activity, inhibition of cell growth. Format: cell-based. To be noted: Homo sapiens, NCI-H460; H-460 cell line, unpublished results; ± SD; read-out: IC50 (concentration required for 50% inhibition of cell growth). The source says: Table 1 Antimicrobial activity of adarotene derivatives 1–20 against MDR clinical strains of S. aureus and E. faecalis and cytotoxic activity. | column: IC50 ^a (µM)

Assay [4] has as its system methicillin-resistant S. aureus (MRSA) strain MW2. Further details: method as in PMID 29590091. Conditions: ref [12]; cited from earlier work.
The test system of assay [5] is S. aureus ATCC 25923 (reference strain). Nature of the assay: MIC/MBC by broth micro-dilution (CLSI). To be noted: Staphylococcus aureus; for MBC: ATCC25923, in square brackets, modal value; for MIC: ATCC25923, modal value. The assay is classed as cell-based. As to the method: (§5) To expand the previously obtained results compounds 16 and 17 were also tested on wider a selection of strains: two other MDR S. aureus and E. faecalis clinical isolates, the S. aureus ATCC 25923 and the E. faecalis ATCC 51299 reference strains. Compound 2, which was endowed with low antimicrobial activity, was tested as well, to confirm its low efficacy. Adarotene was used as control compound (Table 2).
as §2, §3, §4
S. aureus ATCC 25923 (reference strain): mecA negative; multi-susceptible.

Assay [6] relates to S. aureus strain 2 (MDR clinical isolate). Put plainly: MIC/MBC by broth micro-dilution (CLSI). The assay is classed as cell-based. Conditions: Staphylococcus aureus, modal value; for MBC: in square brackets. As for the experimental part: as §5, §2, §3, §4
S. aureus strain 2 (collection, MDR): mecA negative; β-lactamase positive, resistant to erythromycin, gentamicin, clindamycin and fusidic acid.

In assay [7] the test system is E. faecalis ATCC 51299 (reference strain, vanB positive). Put plainly: MIC/MBC by broth micro-dilution (CLSI). Conditions: Enterococcus faecalis; for MBC: ATCC51299, in square brackets, modal value; for MIC: ATCC51299, modal value. The assay is classed as cell-based. As for the experimental part:
as §5, §2, §3, §4
E. faecalis ATCC 51299 (reference strain): vanB positive.

Assay [8] deals with E. faecalis strain 2 (MDR clinical isolate). Nature of the assay: MIC/MBC by broth micro-dilution (CLSI). Conditions: Enterococcus faecalis, modal value; for MBC: in square brackets. The assay is classed as cell-based. As for the experimental part:
as §5, §2, §3, §4
E. faecalis strain 2 (collection, MDR) vanA/B negative; aminoglycosides high-level resistant to aminoglycosides (gentamicin and strseptomycin) and ampicillin.

Assay [9] concerns tumor cell line H-460 NCI. On the set-up: method as in PMID 32920362. Conditions: ± SD, ref [17], read-out: IC50 (concentration required for 50% inhibition of cell growth); cited from earlier work.
Where [10] appears, read: modal value of three replicates.
Where [11] appears, read: Staphylococcus aureus, MRSA, modal value of three replicates, read-out: MIC.
The mark [12] stands for this setting: Staphylococcus aureus, MRSA, modal value, read-out: MIC.
[13] abbreviates: Staphylococcus aureus, MRSA, modal value.
The mark [14] stands for this setting: Enterococcus faecalis, modal value.
Setting [15] is: Enterococcus faecalis, modal value of three replicates, read-out: MIC.
[16] abbreviates: Enterococcus faecalis, modal value, read-out: MIC.

One may read the MBC as the smallest concentration meeting the test's criterion for killing. A low value points to more potent killing. Take `N#C/C(=C\c1ccc(-c2ccc(O)c(C34CC5CC(CC(C5)C3)C4)c2)cc1)C(=O)O` [Compound 9]: the MIC in assay [1] (setting [10]) is 2 µg/mL; in assay [1] (setting [11]), 2 to 4 µg/mL; in [1] (setting [12]), 5 µM; in assay [2] (setting [15]), 1 to 4 µg/mL; in [2] (setting [16]) it was 2 µM; in assay [2] (setting [10]), 1 µg/mL. For the same molecule, the MBC is 4 µg/mL and 10 µM in assay [1] (setting [13]); 4 µg/mL and 10 µM in [2] (setting [14]). Further, the IC50 in assay [3] is more than 10 µM.

Regarding `O=C(O)/C=C/c1ccc(-c2cc(CNC(=O)Nc3ccccc3)c(O)c(C34CC5CC(CC(C5)C3)C4)c2)cc1` [Compound 14], the MIC in assay [1] (setting [11]) amounted to 8 µg/mL; in assay [1] (setting [12]), 15 µM; in [2] (setting [15]), 4 µg/mL; in assay [2] (setting [16]), 8 µM. Further, the MBC was 8 µg/mL and 15 µM in assay [1] (setting [13]); 16 µg/mL and 31 µM in [2] (setting [14]). Besides, the IC50 in assay [3] is more than 10 µM.

As to `O=C(O)c1ccc(-c2ccc3cc(O)c(C45CC6CC(CC(C6)C4)C5)cc3c2)cc1` [CD1530], in assay [4], the “activity against MRSA strain MW2” value is “exhibit activity”.

For `O=C(O)c1ccc2cc(-c3ccc(O)c(C45CC6CC(CC(C6)C4)C5)c3)ccc2c1` [CD437], the “activity against MRSA strain MW2” value in [4] was “exhibit activity”.

Take `CON=Cc1cc(/C=C/C(=O)O)ccc1-c1ccc(O)c(C23CC4CC(CC(C4)C2)C3)c1` [Compound 17]: the minimum bactericidal concentration (MBC) in [5] was 4 µg/mL and 10 µM; in assay [1] (setting [13]), 4 µg/mL and 9 µM; in assay [2] (setting [14]) it was 16 µg/mL and 38 µM; in assay [6], 32 µg/mL and 74 µM; in [7] it was 32 µg/mL and 74 µM; in assay [8], 16 µg/mL and 36 µM. Moreover, the MIC was 2 µg/mL and 5 µM in assay [5]; 4 [4] µg/mL in [1] (setting [10]); 4 µg/mL in assay [1] (setting [11]); 9 µM in assay [1] (setting [12]); 19 µM in [2] (setting [16]); 2 to 8 µg/mL and 8 µg/mL in [2] (setting [10]). The MIC in [6] is 4 µg/mL and 10 µM; in assay [7] it was 8 µg/mL and 18 µM; in assay [8], 8 µg/mL and 18 µM. Further, the “bactericidal or bacteriostatic activity (killing rate = MBC/MIC)” value in assay [1] is on record as “bactericidal effect”. For the same molecule, the IC50 in [9] was more than 10 µM.

Consider `CC(C)(C)ON=Cc1cc(/C=C/C(=O)O)ccc1-c1ccc(O)c(C23CC4CC(CC(C4)C2)C3)c1` [Compound 16], for which the MBC was 4 µg/mL and 8 µM in [5]; 4 µg/mL and 8 µM in [1] (setting [13]); 4 µg/mL and 8 µM in assay [2] (setting [14]); 2 µg/mL and 4 µM in assay [6]; 8 µg/mL and 16 µM in assay [7]; 8 µg/mL and 16 µM in assay [8]. Also, the MIC in assay [5] is 2 µg/mL and 4 µM; in [1] (setting [10]) it was 4 [4] µg/mL; in assay [1] (setting [11]), 4 µg/mL; in [1] (setting [12]), 8 µM; in assay [2] (setting [15]), 2 to 8 µg/mL; in [2] (setting [16]), 4 µM. Further, the MIC in assay [2] (setting [10]) was 2 µg/mL; in assay [6], 2 µg/mL and 4 µM; in assay [7], 2 µg/mL and 4 µM; in assay [8], 2 µg/mL and 4 µM. In addition, the “bactericidal or bacteriostatic activity (killing rate = MBC/MIC)” value in assay [1] was “bactericidal effect”. For the same molecule, the IC50 in assay [9] is more than 10 µM.

On to `CCCCC/C=C\C/C=C\CCCCCCCC(=O)Oc1ccc(-c2ccc(/C=C/C(=O)O)cc2)cc1C12CC3CC(CC(C3)C1)C2` [Compound 3], for which the MIC in assay [1] (setting [11]) is 32 µg/mL; in assay [1] (setting [12]), 50 µM; in [2] (setting [15]), 128 µg/mL; in assay [2] (setting [16]), 201 µM. Besides, the IC50 in assay [3] was 7.8 ± 0.7 µM.
